Test [1] has as its system HEK293T cells stably expressing SD40–eGFP. Nature of the test: Global quantitative proteomics, HEK293T expressing SD40–eGFP. It is filed as cell-based, human. The following applies: 1 µM. Here is the method: To test the versatility of SD40, we generated five stable HEK293T cell lines that exogenously express N- or C-terminal SD40 fusions with Nluc, Fluc, and the kinase activator PRKRA. […] To investigate whether SD40 targets unintended neosubstrates for degradation, we performed global proteomics using HEK293T cells stably expressing SD40–eGFP.
Cells were lysed by addition of lysis buffer (8 M Urea, 50 mM NaCl, 50 mM 4-(2-hydroxyethyl)-1-piperazineethanesulfonic acid (EPPS) pH 8.5, Protease and Phosphatase inhibitors) and homogenization by bead beating (BioSpec) for three repeats of 30 seconds at 2400. Bradford assay was used to determine the final protein concentration in the clarified cell lysate. 50 μg of protein for each sample was reduced, alkylated and precipitated using methanol/chloroform as previously described ([32]) and the resulting washed precipitated protein was allowed to air dry. Precipitated protein was resuspended in 4 M Urea, 50 mM HEPES pH 7.4, followed by dilution to <1 M urea with the addition of 200 mM EPPS, pH 8. Proteins were digested with LysC (1:50; enzyme:protein) and trypsin (1:50; enzyme:protein) overnight at 37 °C. Sample digests were acidified with formic acid to a pH of 2-3 prior to desalting using C18 solid phase extraction plates (SOLA, Thermo Fisher Scientific). Desalted peptides were dried in a vacuum centrifuge and reconstituted in 0.1% formic acid for LC-MS analysis.
Data were collected using a TimsTOF Pro2 (Bruker Daltonics, Bremen, Germany) coupled to a nanoElute LC pump (Bruker Daltonics, Bremen, Germany) via a CaptiveSpray nano-electrospray source. Peptides were separated on a reversed-phase C18 column (25 cm x 75 μm ID, […], IonOpticks, Australia) containing an integrated captive spray emitter. Peptides were separated using a 50 min gradient of 2 – 30% buffer B (acetonitrile in 0.1% formic acid) with a flow rate of 250 nL/min and column temperature maintained at 50 °C.
DDA was performed in Parallel Accumulation-Serial Fragmentation (PASEF) mode to determine effective ion mobility windows for downstream diaPASEF data collection (Meier et al., 2020). The ddaPASEF parameters included: 100% duty cycle using accumulation and ramp times of 50 ms each, 1 TIMS-MS scan and 10 PASEF ramps per acquisition cycle. The TIMS-MS survey scan was acquired between 100–1700 m/z and 1/k0 of 0.7–1.3 V.s/cm^2. Precursors with 1–5 charges were selected and those that reached an intensity threshold of 20,000 arbitrary units were actively excluded for 0.4 min. The quadrupole isolation width was set to 2 m/z for m/z <700 and 3 m/z for m/z >800, with the m/z between 700–800 m/z being interpolated linearly. The TIMS elution voltages were calibrated linearly with three points (Agilent ESI-L Tuning Mix Ions; 622, 922, 1,222 m/z) to determine the reduced ion mobility coefficients (1/K0). To perform diaPASEF, the precursor distribution in the DDA m/z-ion mobility plane was used to design an acquisition scheme for DIA data collection which included two windows in each 50 ms diaPASEF scan. Data was acquired using sixteen of these 25 Da precursor double window scans (creating 32 windows) which covered the diagonal scan line for doubly and triply charged precursors, with singly charged precursors able to be excluded by their position in the m/z-ion mobility plane. These precursor isolation windows were defined between 400–1200 m/z and 1/k0 of 0.7–1.3 V.s/cm^2.
The diaPASEF raw file processing and controlling peptide and protein level false discovery rates, assembling proteins from peptides, and protein quantification from peptides was performed using either targeted, cell line specific spectral libraries generated by searching offline fractionated DDApasef data against a Swissprot human or mouse database (January 2021) or using library free analysis in DIA-NN 1.8 ([85]). […]

For another test, the target named is T1, DDB1•CRBN (Homo sapiens, UniProt Q96SW2).
T1 construct: made in house
Description: Competitive fluorescence anisotropy (polarization) vs thalidomide-Cy5. The class given is binding. The note with it: competition with thalidomide–Cy5; KD estimated from Ki. Here is the method:
Competitive fluorescence polarization experiments were performed according to previously reported methods ([65]). All experiments were performed in 25 mM HEPES, […], 1 mM TCEP, pH 7.4. A pre-complexed sample was prepared by incubating DDB1-CRBN (400 nM) with thalidomide–Cy5 conjugate (fig. S2A) (80 nM) at RT for 30 minutes with gentle shaking (220 rpm). […] Polarization values were measured on an Infinite M1000 Pro microplate reader (Tecan) following 1 hour of incubation at RT with gentle shaking. A total of three independent measurements were acquired and averaged per biological sample to generate the values shown in figure S2C. All mP values were normalized between 0 and 100 using the formula NormalizedmP=[(x−minimum)/[…]]∗100 , where ‘‘x’’ is the mP value of the sample and ‘‘minimum’’ and ‘‘maximum’’ are the minimum and maximum mP values, respectively, across all samples. KD values were estimated from computed Ki-values as previously described ([65]).

In another test the target is T2, full-length CRBN (Homo sapiens, UniProt Q96SW2).
T2 construct: Full-length CRBN MG-PACE circuit; expressed in transfected cells; host or cells: E. coli S2060
Nature of the test: Full-length CRBN MG-PACE circuit luminescence assay. It is filed as cell-based. The note with it: pomalidomide; degron SD0; vs DMSO. The source says:
To evolve ZFs that engage PT-179-bound CRBN, we constructed an MG-PACE circuit using the CRBN•IMiD•ZF molecular glue complex. […] We translationally fused CRBN to the DNA-binding protein RR69 and fused SD0 to the RNAP ω-subunit, then measured transcriptional activation by luminescence (Fig. 2A).
Chemically competent S2060 cells were co-transformed with accessory and complementary plasmids (Table S1).

Where [2] appears, read: vs DMSO, 5 hr, HEK293T SD40–eGFP.
[3] abbreviates: vs DMSO, 24 hr, HEK293T SD40–eGFP.

pKd: −log10 of the molar value.

The values that follow come from article PMC11203266, “Continuous evolution of compact protein degradation tags regulated by selective molecular glues” (Science (New York, N.Y.), 2024).

As usually defined, the pKd is the negative decadic logarithm of the Kd, by convention in mol/L. For the molecule `O=C1CCC(N2C(=O)c3ccc(N4CCOCC4)cc3C2=O)C(=O)N1` (stereo not shown) [PT-179], the “proteins degraded (in words)” value in test [1] (5 and 24 hours, ≥ 2-fold at p ≤ 0.0001, ~7,800 detected) is “SD40–eGFP was the only significantly degraded protein”. In test [1] (setting [2]), the “logFC MFSD10 (Q14728)” value is on record as -5.07E-01, the “logFC RAB18 (Q9NP72)” value was -1.62E-01, the “logFC RALY (Q9UKM9)” value is -1.52E-01 and the “logFC SD40 (XSD40X; SD40–eGFP)” value was -4.05E+00. For the same molecule, the “logFC SYNCRIP (O60506)” value in test [1] (setting [2]) is given as -1.02E-01. In test [1] (setting [3]), the “logFC H2AFV (Q71UI9)” value was found to be 1.94E-01, the “logFC RPS15 (P62841)” value was found to be 1.99E-01, the “logFC SD40 (XSD40X; SD40–eGFP)” value is -3.53E+00 and the “logFC SUMO1P1 (G2XKQ0)” value amounted to 1.61E-01. In test [1] (setting [3]), the “logFC TAGLN3 (Q9UI15)” value came to 4.42E-01. For the same molecule, the pKd on DDB1•CRBN was 6.23.
`Nc1cccc2c1C(=O)N(C1CCC(=O)NC1=O)C2=O` (stereo not shown) [pomalidomide, reference compound] showed a maximal transcriptional activation on full-length CRBN of 7 fold. The “proteins degraded (in words)” value in test [1] (5 hours) was “SD40-eGFP was significantly degraded alongside multiple known endogenous neosubstrates of pomalidomide”. Also, in test [1] (setting [2]), the “logFC MCFD2 (Q8NI22)” value is -1.02E+00, the “logFC SD40 (XSD40X; SD40–eGFP)” value was -4.04E+00, the “logFC SRSF3 (P84103)” value is listed as -1.12E-01 and the “logFC SURF4 (O15260)” value is given as 2.44E-01. The “logFC ZFP91 (Q96JP5)” value in test [1] (setting [2]) was -2.03E+00.
